Assay results from US12624396B2, “Methods for alleviating facioscapulohumeral dystrophy (FSHD) by an antisense nucleic acid molecule inhibiting the expression of double homeobox 4 (DUX4)” (Fred Hutchinson Cancer Center, priority 2010, dated 2026).
Entries after “also recorded” stand apart in the source; their conditions may differ.

How the values were obtained:
[1] = test system: DUX4 mRNA in FSHD fibroblasts; assay: DUX4 mRNA in FSHD fibroblasts with beta-estradiol inducible MyoD, cycloheximide addition and washout; type: cell-based, human; conditions: MyoD induction, 38 hours in differentiation conditions, chx added, FIG. 24
Source text: The 3-prime untranslated region (UTR) of the DUX4 mRNA has an unusual exon-intron structure. The translational stop codon is in the first exon, whereas the polyadenylation sequence is in the third exon. The separation of the translational stop codon from the polyadenylation site by two exon-intron junctions would be predicted to make this mRNA subject to translation dependent nonsense mediated decay.
FSHD fibroblasts expressing low amounts of DUX4 mRNA were stably transduced with a beta-estradiol inducible MyoD so that addition of beta-estradiol will convert them to skeletal muscle, which after 96 hours of induction increases the steady-state levels of the DUX4 mRNA and activates expression of the MyoD target Mgn (compare lanes 1 and 2). […] Washout of the chx results in the rapid loss of the DUX4 mRNA, disappearing between 2 and 8 hrs of washout. The loss of DUX4 mRNA is associated with its translation since the DUX4 target PRAME 1 is induced as the DUX4 mRNA disappears.

[2] = test system: DUX4-fl mRNA in FSHD muscle cells; assay: DUX4-fl mRNA in FSHD muscle cells treated with MAO inhibitors (RT-PCR); type: cell-based, human
Source text: The monamine oxidase inhibitor pargyline has been reported to inhibit the activity of the LSD1 histone demethylase that demethylates H3K9.
FIG. 22 graphically illustrates that pargyline decreases the amount of DUX4 mRNA in FSHD muscle cells.
Middle panel is a no RT control and bottom panel is a GAPDH loading control.

Compound | DUX4 mRNA level [1] | abundance of DUX4-fl mRNA ([2]; FSHD muscle cells expressing endogenous DUX4-fl mRNA, quantitative RT-PCR, FIG. 22) | amount of DUX4-fl mRNA ([2]; cultured FSHD muscle cells differentiated 48 hours in differentiation medium with varying amounts of pargyline, RT-PCR, FIG. 23)
C[C@@H]1C[C@@H]([C@H](O)CC2CC(=O)NC(=O)C2)C(=O)[C@@H](C)C1 [cycloheximide] | accumulation of the DUX4 mRNA; also recorded: significant increase in DUX4 mRNA |  | 
C#CCN(C)Cc1ccccc1 [pargyline] |  | suppresses the expression of DUX4 mRNA; also recorded: decreases the abundance of DUX4-fl mRNA in a dose-dependent manner | dose-dependent inhibition of DUX4 mRNA expression
